# Experimental data: patent US20120149765A1, “SGK1 AS DIAGNOSTIC AND THERAPEUTIC TARGET” (priority 2003, published 2012)
# What was measured:
# [1] = tested on: human vascular smooth muscle cells (HAOSMC); assay: procoagulant activity of human vascular smooth muscle cells (thrombin formation in recalcified platelet-poor plasma); type: cell-based; conditions: additional administration of thrombin; cells expressing sgk-WT or sgk-MT; effect more pronounced and more rapid with intact kinase
# Procedure: In FIG. 1, the procoagulant activity, in % of the maximum value, is plotted against the time after recalcification. In the experiment relating to FIG. 1, the procoagulant activity of human vascular smooth muscle cells (HAOSMC) was measured by measuring thrombin formation during the coagulation process in recalcified blood platelet-poor plasma (PPP) (Beguin S, Lidhout T, Hemker H C: Throm. Haemost. 61: 25-29, […]). For this, confluent vascular smooth muscle cells were kept for 24 hours in serum-free medium, then washed three times in HEPES-tyrode solution, and then incubated with human PPP. The formation of thrombin was induced by adding 16.7 mM CaCl2 to the incubation medium. In each case 20 μl of the supernatant were removed every one to two minutes and the formation of thrombin in the removed volume was determined using the dye S-2238 (Haemochrom Diagnostica). The optical density was determined at 405 nm in a spectrophotometer (Uvikon, Contron-instruments).
# [2] = tested on: tissue factor mRNA (TF mRNA); assay: Northern blot of tissue factor mRNA in human vascular smooth muscle cells; type: cell-based; conditions: thrombin 3 U/ml for 4 hours
# Procedure: The cells are human vascular smooth muscle cells equivalent to the cells used in the above experiment. 28S rRNA is loaded on as the internal standard. Human TF cDNA was used as the probe. The cells were in each case treated without and with thrombin (3 U/ml) for 4 hours.
substance,measurement,setting,value
thrombin,"increase in procoagulant activity, in % of the maximum value, against time after recalcification",[1],accelerated
same,transcription of the tissue factor mRNA,[2]; cells containing active SGK (W) as compared with control cells,upregulated
same,transcription of the tissue factor mRNA,[2]; cells containing inactive SGK mutant (M),reduced
